Calls of active or inactive are those of the source. No rule for the calls is given here.
Biological target: D(4) dopamine receptor (Homo sapiens) (UniProt P21917)
Test: dopamine D4 receptor antagonists (AID 743371)
Conditions: D4 receptor antagonist assay; at 10 µM; hits give high values

Row | inhibition | SMILES
1 | 54% | Cc1ccccc1CN1CCOC(CCc2ccccc2)C1 (stereo not given)
2 | 6% (inactive) | Cc1ccc(N2CCOC(CCc3ccccc3)C2)cc1 (stereo not given)
3 | 2% (inactive) | O=S(=O)(c1ccccc1)N1CCOC(CCc2ccccc2)C1 (stereo not given)
4 | 13% (inactive) | c1ccc(CCC2CN(Cc3ccncc3)CCO2)cc1 (stereo not given)
5 | -8% (inactive) | Cc1cc(C)c(C(=O)N2CCOC(CCc3ccccc3)C2)c(C)c1 (stereo not given)
6 | -4% (inactive) | O=C(c1ccc2c(c1)OCCO2)N1CCOC(CCc2ccccc2)C1 (stereo not given)
7 | 97% | Clc1ccc(CN2CCOC(CCc3ccccc3)C2)cc1 (stereo not given)
8 | 25% (inactive) | FC(F)(F)Oc1ccc(CN2CCO[C@@H](CCc3ccccc3)C2)cc1
9 | 88% | Fc1ccc(CN2CCOC(CCc3ccccc3)C2)cc1 (stereo not given)
10 | 16% (inactive) | c1ccc(CCC2CN(c3ccc4ncccc4c3)CCO2)cc1 (stereo not given)
11 | 88% | FC(F)(F)Oc1cccc(CN2CCOC(CCc3ccccc3)C2)c1 (stereo not given)
12 | 51% | Fc1cccc(F)c1CN1CCOC(CCc2ccccc2)C1 (stereo not given)
13 | 16% (inactive) | O=C(Nc1ccc(Cl)cc1)N1CCOC(CCc2ccccc2)C1 (stereo not given)
14 | 1% (inactive) | O=C(c1cccc(F)c1)N1CCOC(CCc2ccccc2)C1 (stereo not given)
15 | -14% (inactive) | O=C(c1ccno1)N1CCOC(CCc2ccccc2)C1 (stereo not given)
16 | 5% (inactive) | O=C(Nc1ccc(F)cc1)N1CCOC(CCc2ccccc2)C1 (stereo not given)
17 | 86% | COc1ccc(CN2CCO[C@H](CCc3ccccc3)C2)cc1
18 | 5% (inactive) | O=C(c1ccccc1)N1CCOC(CCc2ccccc2)C1 (stereo not given)
19 | 2% (inactive) | O=C(Nc1ccccc1Cl)N1CCOC(CCc2ccccc2)C1 (stereo not given)
20 | 9% (inactive) | O=S(=O)(c1ccccc1F)N1CCOC(CCc2ccccc2)C1 (stereo not given)
21 | 3% (inactive) | O=C(Nc1ccccc1)N1CCOC(CCc2ccccc2)C1 (stereo not given)
22 | 12% (inactive) | Cc1ccc(NC(=O)N2CCOC(CCc3ccccc3)C2)cc1 (stereo not given)
23 | -1% (inactive) | O=C(c1ccc2ccccc2n1)N1CCOC(CCc2ccccc2)C1 (stereo not given)
24 | 94% | FC(F)(F)Oc1ccc(CN2CCOC(CCc3ccccc3)C2)cc1 (stereo not given)
25 | 13% (inactive) | Cc1cccc(S(=O)(=O)N2CCOC(CCc3ccccc3)C2)c1 (stereo not given)

Row | inhibition | SMILES
26 | 5% (inactive) | c1ccc(CCC2CN(c3ccccc3)CCO2)cc1 (stereo not given)
27 | -2% (inactive) | COc1ccc(NC(=O)N2CCOC(CCc3ccccc3)C2)cc1 (stereo not given)
28 | 17% (inactive) | Cn1c(N2CCOC(CCc3ccccc3)C2)nc2ccccc21 (stereo not given)
29 | -3% (inactive) | O=S(=O)(c1ccc2ccccc2c1)N1CCOC(CCc2ccccc2)C1 (stereo not given)
30 | -8% (inactive) | O=S(=O)(c1ccc(F)cc1)N1CCOC(CCc2ccccc2)C1 (stereo not given)
31 | 17% (inactive) | Cc1ccc(C(=O)N2CCOC(CCc3ccccc3)C2)cc1 (stereo not given)
32 | 4% (inactive) | O=C(Nc1ccccc1F)N1CCOC(CCc2ccccc2)C1 (stereo not given)
33 | 74% | c1ccc(CCC2CN(Cc3ccccc3)CCO2)cc1 (stereo not given)
34 | 23% (inactive) | c1ccc(CCC2CN(Cc3ccccn3)CCO2)cc1 (stereo not given)
35 | 13% (inactive) | O=S(=O)(c1cccc(F)c1)N1CCOC(CCc2ccccc2)C1 (stereo not given)
36 | 39% (inactive) | Clc1ccc(CN2CCO[C@@H](CCc3ccccc3)C2)cc1
37 | 35% (inactive) | c1ccc(CCC2CN(Cc3cccnc3)CCO2)cc1 (stereo not given)
38 | 7% (inactive) | O=C(c1ccc(Cl)cc1)N1CCOC(CCc2ccccc2)C1 (stereo not given)
39 | 6% (inactive) | O=S(=O)(c1ccccc1OC(F)(F)F)N1CCOC(CCc2ccccc2)C1 (stereo not given)
40 | 10% (inactive) | O=C(c1cc(F)c(F)c(F)c1)N1CCOC(CCc2ccccc2)C1 (stereo not given)
41 | 96% | FC(F)(F)Oc1ccc(CN2CCO[C@H](CCc3ccccc3)C2)cc1
42 | 98% | COc1ccc(CN2CCOC(CCc3ccccc3)C2)cc1 (stereo not given)
43 | 44% (inactive) | COc1ccc(CN2CCO[C@@H](CCc3ccccc3)C2)cc1
44 | -11% (inactive) | O=C(Nc1cccc(F)c1)N1CCOC(CCc2ccccc2)C1 (stereo not given)
45 | 5% (inactive) | CC(C)(C)c1ccc(S(=O)(=O)N2CCOC(CCc3ccccc3)C2)cc1 (stereo not given)
46 | 13% (inactive) | O=S(=O)(c1ccccc1Cl)N1CCOC(CCc2ccccc2)C1 (stereo not given)
47 | 96% | Clc1ccc(CN2CCO[C@H](CCc3ccccc3)C2)cc1
48 | 18% (inactive) | O=C(c1cccnc1)N1CCOC(CCc2ccccc2)C1 (stereo not given)
49 | -5% (inactive) | COc1ccc(C(=O)N2CCOC(CCc3ccccc3)C2)cc1 (stereo not given)
50 | 15% (inactive) | Cc1ccccc1NC(=O)N1CCOC(CCc2ccccc2)C1 (stereo not given)

Source: PubChem BioAssay AID743371 (Vanderbilt Specialized Chemistry Center, 2014)
